Experimental data: patent US11591323B2, “Muscarinic agonists as non-steroidal and non-opioid analgesics and methods of use thereof” (Barry University, priority 2019, dated 2023)
Read-outs that look alike come from different tables or passages of the source. Values belong to the compound of their own block, whether it stands above or below them.

Legend:
Design in all cases: host or cells: CHO cells, stably transfected
M1 muscarinic receptor [1] = target: T1, M1 muscarinic receptor (Homo sapiens, UniProt P11229); experiment: [3H]NMS competition binding, M1 CHO membranes; conditions: competition with 1 nM [3H]NMS; read-out: Inhibition constants (Ki) as negative logarithms, M1 (converted)
T1 sequence (P11229 1-460): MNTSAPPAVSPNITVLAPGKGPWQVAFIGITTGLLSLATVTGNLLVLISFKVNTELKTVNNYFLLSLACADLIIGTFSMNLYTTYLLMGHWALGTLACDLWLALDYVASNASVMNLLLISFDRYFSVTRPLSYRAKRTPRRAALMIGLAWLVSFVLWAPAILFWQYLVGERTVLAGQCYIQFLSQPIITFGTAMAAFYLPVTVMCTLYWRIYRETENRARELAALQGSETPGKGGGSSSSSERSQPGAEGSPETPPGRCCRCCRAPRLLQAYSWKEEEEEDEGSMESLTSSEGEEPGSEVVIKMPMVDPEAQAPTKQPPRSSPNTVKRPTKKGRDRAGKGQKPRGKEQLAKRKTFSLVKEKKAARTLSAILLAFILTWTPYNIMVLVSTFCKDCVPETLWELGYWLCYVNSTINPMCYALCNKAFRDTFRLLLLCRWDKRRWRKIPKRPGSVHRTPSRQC

M4 muscarinic receptor = target: T2, M4 muscarinic receptor (Homo sapiens, UniProt P08173); experiment: [3H]NMS competition binding, M4 CHO membranes
T2 sequence (P08173 1-479): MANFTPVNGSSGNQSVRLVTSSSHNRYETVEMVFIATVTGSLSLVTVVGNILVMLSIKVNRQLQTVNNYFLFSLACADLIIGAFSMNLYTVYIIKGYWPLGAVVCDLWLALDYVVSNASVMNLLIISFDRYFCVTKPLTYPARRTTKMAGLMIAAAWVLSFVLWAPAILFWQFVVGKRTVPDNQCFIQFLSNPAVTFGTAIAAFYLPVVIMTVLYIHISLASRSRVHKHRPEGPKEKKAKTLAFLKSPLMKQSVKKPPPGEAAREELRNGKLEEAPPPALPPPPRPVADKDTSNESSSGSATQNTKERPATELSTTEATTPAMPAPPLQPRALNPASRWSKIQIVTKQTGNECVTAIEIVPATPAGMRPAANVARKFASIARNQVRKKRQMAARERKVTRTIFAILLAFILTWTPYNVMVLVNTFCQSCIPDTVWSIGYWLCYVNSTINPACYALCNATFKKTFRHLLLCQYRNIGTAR

M5 muscarinic receptor = target: T3, M5 muscarinic receptor (Homo sapiens, UniProt P08912); experiment: [3H]NMS competition binding, M5 CHO membranes
T3 sequence (P08912 1-532): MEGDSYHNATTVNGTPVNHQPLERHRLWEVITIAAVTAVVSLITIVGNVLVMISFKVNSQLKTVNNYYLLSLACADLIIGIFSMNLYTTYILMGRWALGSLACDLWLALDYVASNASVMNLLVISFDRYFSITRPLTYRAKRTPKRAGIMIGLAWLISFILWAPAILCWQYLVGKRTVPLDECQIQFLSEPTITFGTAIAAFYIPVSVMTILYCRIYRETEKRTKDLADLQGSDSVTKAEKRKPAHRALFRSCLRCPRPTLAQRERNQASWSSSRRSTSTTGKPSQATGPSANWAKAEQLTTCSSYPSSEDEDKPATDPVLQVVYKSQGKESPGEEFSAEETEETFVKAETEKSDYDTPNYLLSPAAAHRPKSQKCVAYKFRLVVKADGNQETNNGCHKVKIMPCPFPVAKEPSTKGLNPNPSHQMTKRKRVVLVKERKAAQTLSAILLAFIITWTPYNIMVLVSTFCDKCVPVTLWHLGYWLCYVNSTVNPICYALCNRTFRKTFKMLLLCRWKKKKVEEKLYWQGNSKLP

M1 muscarinic receptor [2] = target: T1, M1 muscarinic receptor; experiment: accumulation of inositol phosphates IPX, M1 CHO cells (M1Gq); assay type: cell-based; conditions: for Kd: operational model, read-out: pKA (converted); for EC50: read-out: pEC50 (converted)
M2 muscarinic receptor = target: T4, M2 muscarinic receptor (Homo sapiens, UniProt P08172); experiment: inhibition of forskolin-stimulated cAMP, M2 CHO cells (M2Gi); assay type: cell-based; conditions: for Emax: CHO
T4 sequence (P08172 1-466): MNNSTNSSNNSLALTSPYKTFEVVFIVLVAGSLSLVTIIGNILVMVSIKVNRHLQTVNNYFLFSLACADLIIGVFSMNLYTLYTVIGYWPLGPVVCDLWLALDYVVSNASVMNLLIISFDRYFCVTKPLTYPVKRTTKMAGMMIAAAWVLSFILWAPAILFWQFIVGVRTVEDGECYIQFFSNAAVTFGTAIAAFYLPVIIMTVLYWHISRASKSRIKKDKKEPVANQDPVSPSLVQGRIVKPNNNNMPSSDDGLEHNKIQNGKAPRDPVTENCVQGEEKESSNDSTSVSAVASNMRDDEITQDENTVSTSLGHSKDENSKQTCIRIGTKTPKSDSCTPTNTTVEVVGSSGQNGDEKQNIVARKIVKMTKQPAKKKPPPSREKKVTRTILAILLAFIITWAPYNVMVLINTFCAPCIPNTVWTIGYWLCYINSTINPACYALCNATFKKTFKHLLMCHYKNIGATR

M3 muscarinic receptor = M3 muscarinic receptor (Homo sapiens, UniProt P20309); experiment: accumulation of IPX, M3 CHO cells (M3Gq); assay type: cell-based; conditions: for Kd: read-out: pKA (converted); for EC50: read-out: pEC50 (converted)
M3 muscarinic receptor, sequence (P20309 whole entry): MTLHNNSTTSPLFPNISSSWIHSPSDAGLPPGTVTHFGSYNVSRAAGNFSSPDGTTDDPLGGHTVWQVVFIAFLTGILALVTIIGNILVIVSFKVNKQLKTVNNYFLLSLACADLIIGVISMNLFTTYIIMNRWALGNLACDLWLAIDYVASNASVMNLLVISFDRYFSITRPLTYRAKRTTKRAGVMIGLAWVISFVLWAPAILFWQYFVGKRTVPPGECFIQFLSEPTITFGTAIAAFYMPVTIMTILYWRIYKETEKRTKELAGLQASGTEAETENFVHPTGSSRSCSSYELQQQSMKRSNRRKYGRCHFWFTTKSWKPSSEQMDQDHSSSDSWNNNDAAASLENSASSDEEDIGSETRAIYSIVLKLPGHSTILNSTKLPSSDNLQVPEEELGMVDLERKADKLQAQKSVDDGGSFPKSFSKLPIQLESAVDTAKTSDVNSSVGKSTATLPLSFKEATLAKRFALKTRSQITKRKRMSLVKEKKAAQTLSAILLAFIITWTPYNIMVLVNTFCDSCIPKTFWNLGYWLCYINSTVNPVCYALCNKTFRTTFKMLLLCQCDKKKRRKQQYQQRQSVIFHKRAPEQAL

[3] = M1 (↑IPX), preferential response, Table 7
[4] = M1 (↑IPX), preferential response, Table 7, operational efficacy
[5] = M2 (↓cAMP), preferential response, Table 7, operational efficacy
[6] = M3 (↑IPX), preferential response, Table 7
[7] = M3 (↑IPX), preferential response, Table 7, operational efficacy
[8] = M3 (↑IPX), preferential response, Table 7, operational model

Ki (M1 muscarinic receptor [1]): 44.7 µM
Ki (M4 muscarinic receptor; at M4 receptors, read-out: Inhibition constants Ki): 54 µM
Ki (M5 muscarinic receptor; competition with 1 nM [3H]NMS, read-out: Inhibition constants (Ki) as negative logarithms, M5 (converted)): 50.1 µM
E′MAX (M1 muscarinic receptor [2]; [3]): 2.0 ± 0.2 fold over basal
τ (M1 muscarinic receptor [2]; [4]): 0.03 ± 0.01
Kd (M1 muscarinic receptor [2]; [3]): 7.94 µM
EC50 (M1 muscarinic receptor [2]; [3]): 7.94 µM
RAi (M1 muscarinic receptor [2]; M1 (↑IPX), preferential response, relative to carbachol, Tables 2, 3, 7): 0.0010 ± 0.0001
Δlog(τ/KA) (M1 muscarinic receptor [2]; M1 (↑IPX), preferential response, to carbachol, Tables 2, 3, 7): 2.98 ± 0.26
E′MAX (M1 muscarinic receptor [2]; M1Gq (↑IPX), Table 8): 2.0 ± 0.2 fold increase
pEC50 (M1 muscarinic receptor [2]; M1Gq (↑IPX), Table 8): 5.1 ± 0.1
pKA (M1 muscarinic receptor [2]; M1Gq (↑IPX), Table 8): 5.1 ± 0.2
τ (M1 muscarinic receptor [2]; M1Gq (↑IPX), Table 8): 0.03 ± 0.01
RAi (M1 muscarinic receptor [2]; M1Gq (↑IPX), Table 8, relative to carbachol): 0.0011 ± 0.0007
Δlog(τ/KA) (M1 muscarinic receptor [2]; M1Gq (↑IPX), Table 8, to carbachol): 2.96 ± 0.86
Emax (M2 muscarinic receptor; M2 (↓cAMP), preferential response, Table 7, read-out: E′MAX): 50 ± 2%
τ (M2 muscarinic receptor; [5]): 1.32 ± 0.08
Kd (M2 muscarinic receptor; M2 (↓cAMP), preferential response, Table 7, operational model, read-out: pKA (converted)): 1.58 µM
EC50 (M2 muscarinic receptor; M2 (↓cAMP), preferential response, Table 7, read-out: pEC50 (converted)): 0.724 µM
E′MAX (M2 muscarinic receptor; M2Gi (↓cAMP), Table 8): 50 ± 2 % inhibition
pEC50 (M2 muscarinic receptor; M2Gi (↓cAMP), Table 8): 6.14 ± 0.05
pKA (M2 muscarinic receptor; M2Gi (↓cAMP), Table 8): 5.8 ± 0.1
τ (M2 muscarinic receptor; M2Gi (↓cAMP), Table 8): 1.3 ± 0.1
RAi (M2 muscarinic receptor; M2Gi (↓cAMP), Table 8, relative to carbachol): 0.067 ± 0.007
Δlog(τ/KA) (M2 muscarinic receptor; M2Gi (↓cAMP), Table 8, to carbachol): 1.22 ± 0.08
E′MAX (M3 muscarinic receptor; [6]): 2.5 ± 0.2 fold over basal
τ (M3 muscarinic receptor; [7]): 0.06 ± 0.01
Kd (M3 muscarinic receptor; [8]): 5.01 µM
EC50 (M3 muscarinic receptor; [6]): 5.01 µM
RAi (M3 muscarinic receptor; M3 (↑IPX), preferential response, relative to carbachol, Tables 2, 3, 7): 0.0058 ± 0.0005
Δlog(τ/KA) (M3 muscarinic receptor; M3 (↑IPX), preferential response, to carbachol, Tables 2, 3, 7): 2.23 ± 0.23
E′MAX (M3 muscarinic receptor; M3Gq (↑IPX), Table 8): 2.4 ± 0.2 fold over basal
τ (M3 muscarinic receptor; M3Gq (↑IPX), Table 8): 0.05 ± 0.01
RAi (M3 muscarinic receptor; M3Gq (↑IPX), Table 8, relative to carbachol): 0.0056 ± 0.0008
Δlog(τ/KA) (M3 muscarinic receptor; M3Gq (↑IPX), Table 8, to carbachol): 2.26 ± 0.48
EC50 (M3 muscarinic receptor; M3Gq (↑IPX), Table 8): 5.01 µM
Kd (M3 muscarinic receptor; M3Gq (↑IPX), Table 8): 5.01 µM
SMILES: C1=CCN(Cc2cccs2)CC1.Cl [Compound 6A, 1-[(thiophen-2-yl)methyl]-1,2,3,6-tetrahydropyridin-1-ium chloride]

SMILES: C[N+]1(Cc2ccc(Cl)s2)CC=CCC1.[I-] (stereo not shown) [Compound 7D, 1-[(5-chlorothiophen-2-yl)methyl]-1-methyl-1,2,3,6-tetrahydropyridin-1-ium iodide]
Ki (M1 muscarinic receptor [1]): 1.38 µM
Ki (M4 muscarinic receptor; Inhibition constants (Ki) as negative logarithms, M4, competition with 1 nM [3H]NMS): 3.09 µM
Ki (M5 muscarinic receptor; Inhibition constants (Ki) as negative logarithms, M5, competition with 1 nM [3H]NMS): 1.7 µM
RAi (M1 muscarinic receptor [2]): 0.0165 ± 0.0003
Δlog(τ/KA) (M1 muscarinic receptor [2]): 1.78 ± 0.21
E′MAX (M1 muscarinic receptor [2]; [3]): 7.9 ± 0.8 fold over basal
τ (M1 muscarinic receptor [2]; [4]): 0.26 ± 0.03
Kd (M1 muscarinic receptor [2]; [3]): 3.98 µM
EC50 (M1 muscarinic receptor [2]; [3]): 3.39 µM
EC50 (M2 muscarinic receptor): 3.89 µM
Kd (M2 muscarinic receptor): 6.31 µM
Emax (M2 muscarinic receptor): 40 ± 2%
τ (M2 muscarinic receptor; [5]): 0.83 ± 0.08
RAi (M2 muscarinic receptor; M2 (↓cAMP), preferential response, relative to carbachol, Tables 2, 3, 7): 0.008 ± 0.001
Δlog(τ/KA) (M2 muscarinic receptor; M2 (↓cAMP), preferential response, to carbachol, Tables 2, 3, 7): 2.05 ± 0.19
RAi (M3 muscarinic receptor): 0.0050 ± 0.0006
Δlog(τ/KA) (M3 muscarinic receptor): 2.30 ± 0.45
E′MAX (M3 muscarinic receptor; [6]): 1.8 ± 0.1 fold over basal
τ (M3 muscarinic receptor; [7]): 0.03 ± 0.01
Kd (M3 muscarinic receptor; [8]): 3.98 µM
EC50 (M3 muscarinic receptor; [6]): 3.16 µM
